Structures can show the parent of a compound that is named as a salt.
Columns and labels:
[1] = biological target: T1, recombinant CDK4/Cyclin D1 (Homo sapiens, UniProt P11802); experiment: Biochemical kinase inhibition test, CDK4/Cyclin D1 (32P-ATP, retinoblastoma protein substrate); conditions: three-fold serial dilution from 10 μM; 10 μM ATP; read-out: CDK4/D1 (nM), enzyme inhibitory activity IC50
T1 construct: purchased Life Technologies PV4204

CDK6/cyclin D1 = CDK6/cyclin D1 (Homo sapiens, UniProt Q00534); experiment: Biochemical kinase inhibition test, CDK6/cyclin D1 (similar method); conditions: for IC50: three-fold serial dilution from 10 μM, 10 μM ATP, read-out: CDK6/D1 (nM), enzyme inhibitory activity IC50; for selectivity for CDK6/cyclin D1 relative to CDK4/cyclin D1 (enzyme inhibitory activity): CDK6/cyclin D1 versus CDK4/cyclin D1
CDK6/cyclin D1, sequence (Q00534 whole entry, species assumed): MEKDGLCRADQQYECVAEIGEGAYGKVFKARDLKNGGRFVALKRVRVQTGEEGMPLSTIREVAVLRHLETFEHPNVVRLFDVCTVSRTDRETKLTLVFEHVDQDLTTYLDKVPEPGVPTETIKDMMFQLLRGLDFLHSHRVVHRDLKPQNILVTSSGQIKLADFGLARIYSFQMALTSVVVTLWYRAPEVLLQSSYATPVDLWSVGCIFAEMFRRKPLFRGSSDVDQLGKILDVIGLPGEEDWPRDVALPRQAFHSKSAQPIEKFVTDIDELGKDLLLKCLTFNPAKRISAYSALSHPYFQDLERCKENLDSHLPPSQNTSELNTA
CDK6/cyclin D1, sequence (P24385 whole entry partner, species assumed): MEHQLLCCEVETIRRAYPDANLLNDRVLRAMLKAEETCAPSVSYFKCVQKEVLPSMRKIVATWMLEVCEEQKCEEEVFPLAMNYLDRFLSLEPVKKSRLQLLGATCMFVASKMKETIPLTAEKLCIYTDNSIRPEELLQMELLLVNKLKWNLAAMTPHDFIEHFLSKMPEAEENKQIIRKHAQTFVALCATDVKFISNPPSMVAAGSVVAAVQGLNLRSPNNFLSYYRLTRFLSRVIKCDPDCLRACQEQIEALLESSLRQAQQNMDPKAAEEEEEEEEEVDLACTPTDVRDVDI
Protocol: Potency determination of biochemical kinase inhibition test. Kinase activity test and IC50 determination. Firstly, 10 ng of recombinant CDK4/Cyclin D1 (Life Technologies PV4204) was diluted in kinase buffer (20 mM Tris pH 7.5, 10 mM MgCl2, 0.01% NP-40, 2 mM DTT), and was incubated with inhibitors at the indicated concentration at room temperature for 30 minutes. The kinase reaction was initiated by adding […] (1.5 μM) of recombinant retinoblastoma protein, 5 μM ATP and 10μ Ci γ-32P-ATP. The reaction was incubated at 30° C. for 20 minutes, and was terminated by adding 2× Laemmli sample buffer, heated at 95° C. for three minutes, and the resulting solution was dissolved with 12% acrylamide SDS-PAGE and autoradiographed. A densitometer (Bio-Rad) was used to quantify the corresponding phosphorylated substrate protein bands. The resulting density values were plotted as a function of the log drug concentration using Prism 4 Graphpad software. IC50 values were determined by plotting a non-linear regression curve with a variable slope.
The inhibitory activity of the compounds disclosed herein against CDK6/cyclin D1 was tested by a similar method.
The compounds were tested in a three-fold serial dilution from the starting concentration of 10 μM, over 10-fold of IC50. The control compound, staurosporine, was tested in a four-fold serial dilution from the starting concentration of 20 μM, over 10-fold of IC50. These reactions took place in the presence of 10 μM ATP.

T1 sequence (P11802 whole entry): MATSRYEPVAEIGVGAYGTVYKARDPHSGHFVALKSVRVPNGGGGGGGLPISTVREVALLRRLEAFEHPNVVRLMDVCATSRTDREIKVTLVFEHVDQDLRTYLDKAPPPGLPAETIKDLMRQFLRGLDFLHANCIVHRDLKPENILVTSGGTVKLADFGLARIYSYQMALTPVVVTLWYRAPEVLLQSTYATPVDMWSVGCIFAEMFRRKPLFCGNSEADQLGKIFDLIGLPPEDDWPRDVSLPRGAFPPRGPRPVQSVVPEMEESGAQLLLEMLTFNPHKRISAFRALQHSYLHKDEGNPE
T1 sequence (P24385 whole entry partner): as the sequence (P24385 whole entry partner, species assumed) above

Row | SMILES | IC50 [1] [nM] | IC50 (CDK6/cyclin D1) [nM] | selectivity for CDK6/cyclin D1 relative to CDK4/cyclin D1 (enzyme inhibitory activity) (CDK6/cyclin D1)
1 | Cc1nc(Nc2ncc3ccc4cnn(C(C)C)c4c3n2)ccc1N1CCNCC1 [Compound I-2] | 1 to 5 | 1 to 5 | –
2 | Cc1cc(Nc2ncc3ccc4cnn(C(C)C)c4c3n2)ncc1N1CCN(C)CC1 [Compound I-5] | 5 to 10 | 10 to 20 | –
3 | Cc1nc(Nc2ncc3ccc4cnn(C(C)C)c4c3n2)ccc1N1CCN(C)CC1 [Compound I-6] | 1 to 5 | < 1 | –
4 | CCN1CCN(c2cnc(Nc3ncc4ccc5cnn(C(C)C)c5c4n3)cc2C)CC1 [Compound I-8] | 5 to 10 | 10 to 20 | –
5 | CC(C)n1ncc2ccc3cnc(Nc4cc(F)c(N5CCNCC5)cn4)nc3c21 [Compound I-10] | 5 to 10 | 10 to 20 | –
6 | CC1CN(c2ccc(Nc3ncc4ccc5cnn(C(C)C)c5c4n3)nc2)CCO1 (stereo not drawn) [Compound I-16] | 5 to 10 | 5 to 10 | –
7 | Cc1cc(Nc2ncc3ccc4cnn(C(C)C)c4c3n2)ncc1N1CCOCC1 [Compound I-19] | 20 to 50 | 10 to 20 | –
8 | CC(C)n1ncc2ccc3cnc(Nc4ccc(N5CCCNCC5)cn4)nc3c21 [Compound I-22] | 10 to 20 | 10 to 20 | –
9 | CC(C)n1ncc2ccc3cnc(Nc4ccc(N5CCC(N(C)C)CC5)cn4)nc3c21 [Compound I-24] | 20 to 50 | 20 to 50 | –
10 | CC(C)n1ncc2ccc3cnc(Nc4ccc(N5CC6(CCNCC6)C5)cn4)nc3c21 [Compound I-26] | 1 to 5 | 1 to 5 | –
11 | CC(C)n1ncc2ccc3cnc(Nc4ccc(N5CCC6(CCNCC6)C5)cn4)nc3c21 [Compound I-27] | 20 to 50 | 20 to 50 | –
12 | Cc1nc(Nc2ncc3ccc4cnn(C(C)C)c4c3n2)ccc1N1CCS(=O)(=O)CC1 [Compound I-30] | 10 to 20 | 10 to 20 | –
13 | COc1ccc2cc(Nc3ncc4ccc5cnn(C(C)C)c5c4n3)ccc2n1 [Compound I-32] | 20 to 50 | 20 to 50 | –
14 | CC(C)n1ncc2ccc3cnc(N4CCC[C@@H]4c4cccc(F)c4)nc3c21 [Compound I-33] | 50 to 100 | 50 to 100 | –
15 | CC(C)n1ncc2ccc3cnc(N4CCC[C@@H]4c4cc(F)ccc4F)nc3c21 [Compound I-34] | 50 to 100 | 50 to 100 | –
16 | Cc1nc(Nc2ncc3ccc4cnn(C5CCCC5)c4c3n2)ccc1N1CCNCC1 [Compound I-37] | 1 to 5 | < 1 | –
17 | CCN1CCN(c2ccc(Nc3ncc4ccc5cnn(C6CCCC6)c5c4n3)nc2)CC1 [Compound I-39] | < 1 | 1 to 5 | –
18 | c1cc(Nc2ncc3ccc4cnn(C5CCCC5)c4c3n2)ncc1N1CCOCC1 [Compound I-42] | 1 to 5 | 1 to 5 | –
19 | Cc1cc(Nc2ncc3ccc4cnn(C5CCCC5)c4c3n2)ncc1N1CCOCC1 [Compound I-44] | 10 to 20 | 10 to 20 | –
20 | CCn1ncc2ccc3cnc(Nc4cc(F)c(N5CCNCC5)cn4)nc3c21.Cl [Compound I-46] | 20 to 50 | 10 to 20 | about 2 times
21 | CCN1CCN(c2ccc(Nc3ncc4ccc5cnn(CC)c5c4n3)nc2)CC1 [Compound I-48] | 10 to 20 | 5 to 10 | about 3 times
22 | CCN1CCN(c2cnc(Nc3ncc4ccc5cnn(CC)c5c4n3)cc2C)CC1 [Compound I-49] | 20 to 50 | 10 to 20 | about 2 times
23 | CCn1ncc2ccc3cnc(Nc4ccc(N5CCOCC5)cn4)nc3c21 [Compound I-50] | 10 to 20 | 5 to 10 | about 3 times
24 | CCn1ncc2ccc3cnc(Nc4cc(C)c(N5CCN(C)CC5)cn4)nc3c21 [Compound I-51] | 20 to 50 | 10 to 20 | about 2 times
25 | CCn1ncc2ccc3cnc(Nc4cc(C)c(N5CCOCC5)cn4)nc3c21 [Compound I-52] | 10 to 20 | 10 to 20 | –
26 | Cl.c1cc(Nc2ncc3ccc4cnn(C5CC5)c4c3n2)ncc1N1CCNCC1 [Compound I-53] | 10 to 20 | 5 to 10 | about 2 times
27 | Cl.Fc1cc(Nc2ncc3ccc4cnn(C5CC5)c4c3n2)ncc1N1CCNCC1 [Compound I-54] | 20 to 50 | 10 to 20 | about 2 times
28 | Cc1cc(Nc2ncc3ccc4cnn(C5CC5)c4c3n2)ncc1N1CCN(C)CC1 [Compound I-55] | 20 to 50 | 10 to 20 | about 2 times

More lines, now with the values ahead:

Row | IC50 [1] [nM] | IC50 (CDK6/cyclin D1) [nM] | selectivity for CDK6/cyclin D1 relative to CDK4/cyclin D1 (enzyme inhibitory activity) (CDK6/cyclin D1) | SMILES
29 | < 1 | < 1 | – | CC(C)n1ncc2ccc3cnc(Nc4ccc(N5CCNCC5)cn4)nc3c21 [Compound I-1, 1-isopropyl-N-(5-(piperazin-1-yl)pyridin-2-yl)-1H-pyrazolo[4,3-h]quinazolin-8-amine hydrochloride]
30 | 5 to 10 | 10 to 20 | – | Cc1cc(Nc2ncc3ccc4cnn(C(C)C)c4c3n2)ncc1N1CCNCC1 [Compound I-3]
31 | 1 to 5 | 1 to 5 | – | CC(C)n1ncc2ccc3cnc(Nc4ccc(N5CCN(C)CC5)cn4)nc3c21 [Compound I-4]
32 | 1 to 5 | 1 to 5 | – | CCN1CCN(c2ccc(Nc3ncc4ccc5cnn(C(C)C)c5c4n3)nc2)CC1 [Compound I-7]
33 | 1 to 5 | < 1 | – | CCN1CCN(c2ccc(Nc3ncc4ccc5cnn(C(C)C)c5c4n3)nc2C)CC1 [Compound I-9]
34 | 1 to 5 | 5 to 10 | – | CC(C)n1ncc2ccc3cnc(Nc4ccc(N5CCNCC5)c(F)n4)nc3c21 [Compound I-11]
35 | 5 to 10 | 5 to 10 | – | CC(C)n1ncc2ccc3cnc(Nc4ccc(N5CCN[C@@H](C)C5)cn4)nc3c21 [Compound I-12]
36 | 5 to 10 | 5 to 10 | – | CC(C)n1ncc2ccc3cnc(Nc4ccc(N5C[C@@H](C)N[C@@H](C)C5)cn4)nc3c21 [Compound I-13]
37 | 10 to 20 | 10 to 20 | – | CC(C)n1ncc2ccc3cnc(Nc4ccc(N5CCNC(C)(C)C5)cn4)nc3c21 [Compound I-14]
38 | 1 to 5 | 1 to 5 | – | CC(C)n1ncc2ccc3cnc(Nc4ccc(N5CCOCC5)cn4)nc3c21 [Compound I-15]
39 | 5 to 10 | 5 to 10 | – | CC(C)n1ncc2ccc3cnc(Nc4ccc(N5C[C@@H](C)O[C@@H](C)C5)cn4)nc3c21 [Compound I-17]
40 | 1 to 5 | < 1 | – | Cc1nc(Nc2ncc3ccc4cnn(C(C)C)c4c3n2)ccc1N1CCOCC1 [Compound I-18]
41 | 20 to 50 | 20 to 50 | – | Cc1cc(Nc2ncc3ccc4cnn(C(C)C)c4c3n2)ncc1N1CCOC(C)C1 (stereo not drawn) [Compound I-20]
42 | 5 to 10 | 10 to 20 | – | Cc1nc(Nc2ncc3ccc4cnn(C(C)C)c4c3n2)ccc1N1CCOC(C)C1 (stereo not drawn) [Compound I-21]
43 | 50 to 100 | 50 to 100 | – | CC(C)n1ncc2ccc3cnc(Nc4ccc(N5CCCCC5)cn4)nc3c21 [Compound I-23]
44 | 1 to 5 | 1 to 5 | – | CC(C)n1ncc2ccc3cnc(Nc4ccc(N5CCC6(CC5)CNC6)cn4)nc3c21 [Compound I-25]
45 | 10 to 20 | 10 to 20 | – | CC(C)n1ncc2ccc3cnc(Nc4ccc(N5CCS(=O)(=O)CC5)cn4)nc3c21 [Compound I-28]
46 | 20 to 50 | 20 to 50 | – | Cc1cc(Nc2ncc3ccc4cnn(C(C)C)c4c3n2)ncc1N1CCS(=O)(=O)CC1 [Compound I-29]
47 | 50 to 100 | 50 to 100 | – | CC(C)n1ncc2ccc3cnc(Nc4ccc(C(=O)N5CCC(N6CCN(C)CC6)CC5)cn4)nc3c21 [Compound I-31]
48 | 1 to 5 | 1 to 5 | – | c1cc(Nc2ncc3ccc4cnn(C5CCCC5)c4c3n2)ncc1N1CCNCC1 [Compound I-35]
49 | 10 to 20 | 10 to 20 | – | Cc1cc(Nc2ncc3ccc4cnn(C5CCCC5)c4c3n2)ncc1N1CCNCC1 [Compound I-36]
50 | 1 to 5 | 5 to 10 | – | CN1CCN(c2ccc(Nc3ncc4ccc5cnn(C6CCCC6)c5c4n3)nc2)CC1 [Compound I-38]
51 | 1 to 5 | 1 to 5 | – | CCN1CCN(c2ccc(Nc3ncc4ccc5cnn(C6CCCC6)c5c4n3)nc2C)CC1 [Compound I-40]
52 | 10 to 20 | 10 to 20 | – | CCN1CCN(c2cnc(Nc3ncc4ccc5cnn(C6CCCC6)c5c4n3)cc2C)CC1 [Compound I-41]
53 | 1 to 5 | 1 to 5 | – | Cc1nc(Nc2ncc3ccc4cnn(C5CCCC5)c4c3n2)ccc1N1CCOCC1 [Compound I-43]
54 | 10 to 20 | 5 to 10 | about 3 times | CCn1ncc2ccc3cnc(Nc4ccc(N5CCNCC5)cn4)nc3c21.Cl [Compound I-45]
55 | 10 to 20 | 5 to 10 | about 2 times | CCn1ncc2ccc3cnc(Nc4ccc(N5CCNCC5)c(F)n4)nc3c21.Cl [Compound I-47]

— patent US11993604B2, “Substituted pyrazolo[4,3-H]quinazolines as protein kinase inhibitors” (SHENGKE PHARMACEUTICALS (JIANGSU) LTD., priority 2017, dated 2024)
